According to US11926574B2, “Dimethoxyphenylalkylamine activators of serotonin receptors” (Entheogenix Biosciences, Inc., priority 2021, dated 2024):
Counter-ions that a name gives are not always drawn.

These compounds were tested against 5HT2A (Homo sapiens, UniProt P28223) (assay: 5HT2A Activity (% Max Activation @ 0.3 uM)).
Assay type: cell-based

Chain of 5HT2A (P28223 whole entry): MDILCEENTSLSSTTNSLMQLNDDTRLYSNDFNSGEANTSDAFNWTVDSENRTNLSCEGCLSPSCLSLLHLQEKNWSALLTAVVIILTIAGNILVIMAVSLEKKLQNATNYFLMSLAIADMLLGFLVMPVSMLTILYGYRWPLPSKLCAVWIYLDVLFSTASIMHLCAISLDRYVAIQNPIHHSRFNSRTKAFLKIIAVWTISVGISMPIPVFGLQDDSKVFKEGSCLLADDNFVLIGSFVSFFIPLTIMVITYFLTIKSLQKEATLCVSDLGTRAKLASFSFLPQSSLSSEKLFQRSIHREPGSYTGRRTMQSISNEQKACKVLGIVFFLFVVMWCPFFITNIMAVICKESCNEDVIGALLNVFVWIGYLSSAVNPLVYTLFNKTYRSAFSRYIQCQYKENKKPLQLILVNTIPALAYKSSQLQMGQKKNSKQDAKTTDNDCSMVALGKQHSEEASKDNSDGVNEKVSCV

Row | SMILES | Emax at 0.3 µM [%]
1 | COc1ccc(OC)c2c1CCC(NCc1cc(C)cc(Cl)c1)C2 (stereo not drawn) [Compound 1-1, N-(3-chloro-5-methylbenzyl)-5,8-dimethoxy-1,2,3,4-tetrahydronaphthalen-2-amine] | 67
2 | COc1cc(I)c(OC)c2c1CC(NCc1cc(C)cc(Cl)c1)CC2 (stereo not drawn) [Compound 1-2A, N-(3-chloro-5-methylbenzyl)-6-iodo-5,8-dimethoxy-1,2,3,4-tetrahydronaphthalen-2-amine] | 73
3 | COc1ccc(OC)c2c1CCC(NCc1cc(C)cc(F)c1)C2 (stereo not drawn) [Compound 1-3, N-(3-fluoro-5-methylbenzyl)-5,8-dimethoxy-1,2,3,4-tetrahydronaphthalen-2-amine] | 76
4 | COc1ccc(OC)c2c1CCC(NCc1cc(C)cc(Br)c1)C2 (stereo not drawn) [Compound 1-4, N-(3-bromo-5-methylbenzyl)-5,8-dimethoxy-1,2,3,4-tetrahydronaphthalen-2-amine] | 42
5 | COc1ccc(OC)c2c1CCC(NCc1cc(C)cc(I)c1)C2 (stereo not drawn) [Compound 1-5, N-(3-iodo-5-methylbenzyl)-5,8-dimethoxy-1,2,3,4-tetrahydronaphthalen-2-amine] | 12
6 | COc1ccc(OC)c2c1CCC(NCc1cccc(Cl)c1C)C2 (stereo not drawn) [Compound 1-9, N-(3-chloro-2-methylbenzyl)-5,8-dimethoxy-1,2,3,4-tetrahydronaphthalen-2-amine] | 7
7 | COc1ccc(OC)c2c1CCC(NCc1cccc(C)c1Cl)C2 (stereo not drawn) [Compound 1-10, N-(2-chloro-3-methylbenzyl)-5,8-dimethoxy-1,2,3,4-tetrahydronaphthalen-2-amine] | 2
8 | COc1ccc(OC)c2c1CCC(NCc1ccc(Cl)cc1C)C2 (stereo not drawn) [Compound 1-11, N-(4-chloro-2-methylbenzyl)-5,8-dimethoxy-1,2,3,4-tetrahydronaphthalen-2-amine] | 1
9 | COc1ccc(OC)c2c1CCC(NCc1ccc(C)cc1Cl)C2 (stereo not drawn) [Compound 1-12, N-(2-chloro-4-methylbenzyl)-5,8-dimethoxy-1,2,3,4-tetrahydronaphthalen-2-amine] | 4
10 | COc1ccc(OC)c2c1CCC(NCc1cc(C)ccc1Cl)C2 (stereo not drawn) [Compound 1-13, N-(2-chloro-5-methylbenzyl)-5,8-dimethoxy-1,2,3,4-tetrahydronaphthalen-2-Amine] | 15
11 | COc1ccc(OC)c2c1CCC(NCc1cc(Cl)cc(Cl)c1)C2 (stereo not drawn) [Compound 1-15, N-(3,5-dichlorobenzyl)-5,8-dimethoxy-1,2,3,4-tetrahydronaphthalen-2-amine] | 11
12 | COc1ccc(OC)c2c1CCC(NCc1cccc(Cl)c1Cl)C2 (stereo not drawn) [Compound 1-17, N-(2,3-dichlorobenzyl)-5,8-dimethoxy-1,2,3,4-tetrahydronaphthalen-2-amine] | 1
13 | COc1ccc(OC)c2c1CCC(NCc1ccccc1)C2 (stereo not drawn) [Compound 1-18, N-benzyl-5,8-dimethoxy-1,2,3,4-tetrahydronaphthalen-2-amine] | 6
14 | COc1cc(C)c(OC)c2c1CC(NCc1cc(C)cc(Cl)c1)CC2 (stereo not drawn) [Compound 1-19, N-(3-chloro-5-methylbenzyl)-5,8-dimethoxy-6-methyl-1,2,3,4-tetrahydro-naphthalen-2-amine hydrochloride] | 73
15 | COc1ccc(OC)c2c1CC(NCc1cc(C)cc(Cl)c1)C2 [Compound 1-20, N-(3-chloro-5-methylbenzyl)-4,7-dimethoxy-2,3-dihydro-1H-inden-2-amine hydrochloride] | 59
16 | COc1ccc(OC)c2c1CCC2NCc1cc(C)cc(Cl)c1 (stereo not drawn) [Compound 1-21, N-(3-chloro-5-methylbenzyl)-4,7-dimethoxy-2,3-dihydro-1H-1-inden-1-amine] | 9
17 | COc1ccc(OC)c(CCNCc2cc(C)cc(F)c2)c1 [Compound 2-2, 2-(2,5-dimethoxyphenyl)-N-(3-fluoro-5-methylbenzyl)ethan-1-amine] | 76
18 | COc1ccc(OC)c(CCNCc2ccc(C)cc2Cl)c1 [Compound 2-3, N-(2-chloro-4-methylbenzyl)-2-(2,5-dimethoxyphenyl)ethan-1-amine] | 8
